# Source: publication PMC7180927, “Arylaminopropanone Derivatives as Potential Cholinesterase Inhibitors: Synthesis, Docking Study and Biological Evaluation” (Molecules, 2020)
# Like-named read-outs stand apart in the source and are kept apart here.
# Experiments:
# [1] = biological target: T1, BuChE (equine serum) (Equus caballus, UniProt P81908); test: BuChE inhibition, modified Ellman's method; format: biochemical; settings: for inhibition at 100 µM / BuChE (%) percentage of inhibition: mean ± SD (n = 5); for IC50: n = 3 per concentration
# T1 construct: 20 μL of AChE (electric eel) or BuChE (equine serum) in phosphate solution (2.3 U/mL); from tissue; host or cells: equine serum
# Method: (§1) The in vitro testing of ChEs inhibition was performed according to the modified Ellman’s method. […] The percentage of inhibition activity was defined for all compounds.
# (§2) The in vitro testing of ChEs inhibition was performed on 96-well microplate reader, Synergy^TM HT, BioTek, Vinnoski, USA.
# (§3) The method originally developed by Ellman was used with slight modifications. The measurement of AChE and BuChE inhibitory activity was performed in a 96-well microplate reader. 170 μL of 0.1 M phosphate buffer (pH 7.0), 20 μL of AChE (electric eel) or BuChE (equine serum) in phosphate solution (2.3 U/mL), 20 μL of the tested compound in methanol and 20 μL of 10 mM (5,5′-dithiobis(2-nitrobenzoic acid), DTNB, Ellman’s Reagent) were mixed and incubated at 37 °C for 15 min.
# Then 20 μL of 7.5 mM acetylthiocholine iodide (ATCI)/butyrylthiocholine iodide (BTCI) were added. […] […] There was prepared one set of mixtures as a control (Abscontrol), which contained an equal volume of methanol instead of the tested samples.
# (§4) The percentage ability to inhibit AChE and BuChE at the concentration 100 µM was tested for all compounds. The inhibitory rates IR (%) were calculated according to the Equation (1). IR = [1 - (Abssample/Abscontrol)] × 100(1)
# The values were calculated by non-linear regression of the concentration-response curve using GraphPad Prism 5.0 software, according to the Equation (2):Y = Ymin + (Ymax − Ymin)/(1 + [(X^HillSlope)/(IC50^HillSlope)])(2)
# [2] = biological target: AChE (electric eel) (Electrophorus electricus, UniProt O42275); test: biochemical; settings: for inhibition at 100 µM: read-out: AChE (%) percentage of inhibition
# Method: as §1, §2, §3
# Then 20 μL of 7.5 mM acetylthiocholine iodide (ATCI)/butyrylthiocholine iodide (BTCI) were added. […] Each measurement was repeated five times (n = 5). There was prepared one set of mixtures as a control (Abscontrol), which contained an equal volume of methanol instead of the tested samples.
# as §4
# [3] = at 100 µM, read-out: BuChE (%) percentage of inhibition
# [4] = read-out: BuChE (%) percentage of inhibition, at 100 µM
# T1 sequence (P81908 whole entry): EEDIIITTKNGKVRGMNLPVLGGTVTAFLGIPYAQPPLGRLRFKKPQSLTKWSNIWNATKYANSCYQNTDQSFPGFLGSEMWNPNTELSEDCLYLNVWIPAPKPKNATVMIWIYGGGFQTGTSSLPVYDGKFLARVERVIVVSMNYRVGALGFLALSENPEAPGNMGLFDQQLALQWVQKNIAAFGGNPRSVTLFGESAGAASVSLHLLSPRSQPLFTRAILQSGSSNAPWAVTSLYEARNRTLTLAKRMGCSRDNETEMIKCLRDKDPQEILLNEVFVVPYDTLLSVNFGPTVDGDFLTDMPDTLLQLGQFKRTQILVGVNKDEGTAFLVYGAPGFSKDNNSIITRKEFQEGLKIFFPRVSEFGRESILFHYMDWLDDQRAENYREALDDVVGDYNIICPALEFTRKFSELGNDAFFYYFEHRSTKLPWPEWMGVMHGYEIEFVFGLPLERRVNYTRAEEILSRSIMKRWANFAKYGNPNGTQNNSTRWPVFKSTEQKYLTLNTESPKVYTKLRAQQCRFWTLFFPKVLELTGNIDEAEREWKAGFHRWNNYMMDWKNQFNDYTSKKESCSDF
# Chain of AChE (electric eel) (O42275 24-633): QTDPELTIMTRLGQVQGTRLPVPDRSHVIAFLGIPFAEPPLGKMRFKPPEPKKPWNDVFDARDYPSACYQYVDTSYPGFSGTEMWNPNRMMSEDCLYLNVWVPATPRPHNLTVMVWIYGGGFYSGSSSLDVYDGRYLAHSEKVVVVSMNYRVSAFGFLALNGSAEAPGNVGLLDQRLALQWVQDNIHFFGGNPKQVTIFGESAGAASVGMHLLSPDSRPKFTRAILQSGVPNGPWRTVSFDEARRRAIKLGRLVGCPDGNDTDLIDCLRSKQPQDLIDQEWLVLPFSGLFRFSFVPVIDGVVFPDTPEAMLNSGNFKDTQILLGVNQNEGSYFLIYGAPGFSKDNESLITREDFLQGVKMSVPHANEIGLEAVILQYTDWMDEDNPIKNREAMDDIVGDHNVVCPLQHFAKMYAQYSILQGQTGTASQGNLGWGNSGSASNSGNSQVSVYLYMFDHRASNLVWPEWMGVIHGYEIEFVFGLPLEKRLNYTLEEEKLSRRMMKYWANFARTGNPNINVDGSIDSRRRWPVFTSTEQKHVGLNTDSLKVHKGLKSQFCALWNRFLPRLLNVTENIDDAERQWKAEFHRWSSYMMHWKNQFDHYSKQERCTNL
Compound,"inhibition at 100 µM [1, 3]",IC50 [1],IC50 [2],"inhibition at 100 µM ([2]; at 100 µM, mean ± SD (n = 5))",inhibition at 100 µM [2],BuChE (%) percentage of inhibition ([1]; at 100 µM),"inhibition at 100 µM [1, 4]","AChE (%) percentage of inhibition ([2]; at 100 µM, mean ± SD (n = 5))"
"CCCOC(=O)Nc1ccc(C(=O)CCN2CCCCC2)cc1 [Compound 3, 1-(3-oxo-3-{4-[(propoxycarbonyl)amino]phenyl}propyl)piperidin-1-ium chloride]",21 ± 2.5%,> 100 µM,6.57 µM,79.4 ± 0.3%,,,,
"CCCN(C)CCC(=O)c1ccc(NC(=O)OCC)cc1 [Compound 15, (3-{4-[(ethoxycarbonyl)amino]phenyl}-3-oxopropyl)(methyl)propylazanium chloride]",36.8 ± 2.1%,> 100 µM,> 100 µM,45.3 ± 3.4%,,,,
"COC(=O)Nc1ccc(C(=O)CCN2CCCCC2)cc1 [Compound 1, 1-(3-{4-[(methoxycarbonyl)amino]phenyl}-3-oxopropyl)piperidin-1-ium chloride]",10 ± 0.8%,> 100 µM,12.7 µM,74.1 ± 0.9%,,,,
"CCCCOC(=O)Nc1ccc(C(=O)CCN(CC)CCCC)cc1 [Compound 13, (3-{4-[(butoxycarbonyl)amino]phenyl}-3-oxopropyl)(butyl)ethylazanium chloride]",48.7 ± 2.6%,> 100 µM,> 100 µM,33.5 ± 3.4%,,,,
"CCOC(=O)Nc1ccc(C(=O)CCN(CC)CC)cc1 [Compound 6, (3-{4-[(ethoxycarbonyl)amino]phenyl}-3-oxopropyl)diethylazanium chloride]",34.2 ± 2.6%,> 100 µM,> 100 µM,42.2 ± 4.3%,,,,
"CCCOC(=O)Nc1ccc(C(=O)CCN2CCOCC2)cc1 [Compound 5, 4-(3-oxo-3-{4-[(propoxycarbonyl)amino]phenyl}propyl)morpholin-4-ium chloride]",14.4 ± 2.4%,> 100 µM,> 100 µM,25.9 ± 3.2%,,,,
"COc1ccc2c3c1O[C@H]1C[C@@H](O)C=C[C@@]31CCN(C)C2 [Galantamine, reference compound]",62.1 ± 1.4%,,,,,,,
"CCN(C)C(=O)Oc1cccc([C@H](C)N(C)C)c1 [Rivastigmine, reference compound]",72.9 ± 1.5%,,,,54.8 ± 4.4%,,,
"CCCCN(C)CCC(=O)c1ccc(NC(=O)OCC)cc1 [Compound 8, Butyl(3-{4-[(ethoxycarbonyl)amino]phenyl}-3-oxopropyl)methylazanium chloride]",4.7 ± 3%,> 100 µM,> 100 µM,23.5 ± 2.2%,,,,
"CCCCN(CC)CCC(=O)c1ccc(NC(=O)OCCC)cc1.Cl [Compound 12, Butyl(ethyl)(3-{4-[(propoxycarbonyl)amino]phenyl}-3-oxopropyl)azanium chloride]",,> 100 µM,> 100 µM,38.4 ± 1.3%,,51.1 ± 3.3%,> 50%,
"CCOC(=O)Nc1ccc(C(=O)CCN2CCCCC2)cc1 [Compound 2, 1-(3-{4-[(ethoxycarbonyl)amino]phenyl}-3-oxopropyl)piperidin-1-ium chloride]",15.7 ± 1.9%,> 100 µM,8.58 µM,77.8 ± 0.4%,,,,
"CCCCCN(C)CCC(=O)c1ccc(NC(=O)OCC)cc1.Cl [Compound 16, (3-{4-[(ethoxycarbonyl)amino]phenyl}-3-oxopropyl)(methyl)pentylazanium chloride]",46.3 ± 2%,> 100 µM,> 100 µM,> 50%,,,,50.6 ± 1.8%
"CCOC(=O)Nc1ccc(C(=O)CCN2CCOCC2)cc1 [Compound 4, 4-(3-{4-[(ethoxycarbonyl)amino]phenyl}-3-oxopropyl)morpholin-4-ium chloride]",17.8 ± 3.4%,> 100 µM,> 100 µM,16.1 ± 4.2%,,,,
"CCCCN(CC)CCC(=O)c1ccc(NC(=O)OC)cc1 [Compound 10, Butyl(ethyl)(3-{4-[(methoxycarbonyl)amino]phenyl}-3-oxopropyl)azanium chloride]",43.6 ± 3%,> 100 µM,> 100 µM,23.6 ± 2.3%,,,,
"CCCCN(CC)CCC(=O)c1ccc(NC(=O)OCC)cc1.Cl [Compound 11, Butyl(3-{4-[(ethoxycarbonyl)amino]phenyl}-3-oxopropyl)ethylazanium chloride]",,,,24.6 ± 1.9%,,51.0 ± 2.9%,> 50%,
"CCCCN(C)CCC(=O)c1ccc(NC(=O)OC)cc1 [Compound 7, Butyl(3-{4-[(methoxycarbonyl)amino]phenyl}-3-oxopropyl)methylazanium chloride]",20.4 ± 5.8%,> 100 µM,> 100 µM,38 ± 4.2%,,,,
"CCCN(C)CCC(=O)c1ccc(NC(=O)OC)cc1 [Compound 14, (3-{4-[(methoxycarbonyl)amino]phenyl}-3-oxopropyl)(methyl)propylazanium chloride]",22.3 ± 4.6%,> 100 µM,> 100 µM,42.2 ± 1.3%,,,,
"CCCCN(C)CCC(=O)c1ccc(NC(=O)OCCC)cc1 [Compound 9, Butyl(methyl)(3-oxo-3-{4-[(propoxycarbonyl)amino]phenyl}propyl)azanium chloride]",29 ± 2.9%,> 100 µM,> 100 µM,44.5 ± 1.1%,,,,
